Results reported in ChEMBL document CHEMBL1151776, “Identification of aquaporin 4 inhibitors using in vitro and in silico methods” (Bioorg Med Chem, 2009).

Key:
Type in all cases: cell-based
[1] = system: Oocyte; test: Inhibition of human aquaporin 4 M23 isoform expressed in Xenopus laevis oocytes at 20 uM
[2] = (§1) Inhibition of human aquaporin 4 M23 isoform expressed in Xenopus laevis oocytes; settings: oocyte
[3] = system: Oocyte; test: as §1

| Structure (SMILES) | inhibition [1] | IC50 [2] | Imax [3] |
| --- | --- | --- | --- |
| CN1CCc2cccc3c2[C@H]1Cc1ccc(O)c(O)c1-3 | 40% | – | – |
| O=C(Nc1nccs1)c1cccnc1 | 30% | – | – |
| NS(=O)(=O)c1ccc(Cl)s1 | 18% | – | – |
| N[C@@H]1CONC1=O | 3% | – | – |
| OCC(O)COCc1ccccc1 (centres undefined) | 11% | – | – |
| Oc1cnc(Nc2nc3ccccc3o2)[nH]1 | 44% | – | – |
| CCCC(C)C1(CC)C(=O)NC(=O)NC1=O (centres undefined) | 9% | – | – |
| COc1ccccc1OCC(O)CO (centres undefined) | 34% | – | – |
| NS(=O)(=O)c1cc(Cl)sc1Cl | 11% | – | – |
| CN(C)CCc1c[nH]c2ccc(Cn3cncn3)cc12 [RIZATRIPTAN] | 52% | 2.9 µM | 54% |
| CNS(=O)(=O)Cc1ccc2[nH]cc(CCN(C)C)c2c1 [SUMATRIPTAN] | 54% | 11 µM | 52% |
| O=C(Nc1ccccc1)c1cccnc1 | 26% | – | – |
| CC(C)NC[C@H](O)COc1cccc2ccccc12 | 26% | – | – |
| O=S(=O)(Cc1ccccc1)Nc1nccs1 | 45% | – | – |
| O=C(Nc1nncs1)c1cccnc1 | 67% | 3.1 µM | 73% |
| CC/C(=C(\c1ccccc1)c1ccc(OCCN(C)C)cc1)c1ccccc1 | 71% | – | – |
| NC(=O)NCCC[C@H](N)C(=O)O | 0% | – | – |
| NC(=O)c1nc[nH]c1C(N)=O | 23% | – | – |
